± gives the expanded uncertainty stated by the source.
What was measured:
[1] = φn = volume fraction of the nth substance listed; details: 298.15 K, Wilhelmy Plate Method
[2] = 298.15 K, Wilhelmy Plate Method

Compound | surface tension liquid-gas ([1]; φ1 = 0.1) [mN/m] | surface tension liquid-gas ([1]; φ1 = 0.2) [mN/m] | surface tension liquid-gas ([1]; φ1 = 0.3) [mN/m] | surface tension liquid-gas [2] [mN/m] | surface tension liquid-gas ([1]; φ2 = 0) [mN/m]
OCCO [1,2-ethanediol] + O | 68.3 ± 0.4 | 64.8 ± 0.4 | 61.5 ± 0.4 | – | –
C1COCCO1 [1,4-dioxane] + O | 54 ± 0.4 | 52 ± 0.4 | 46.6 ± 0.4 | – | –
O [water] | – | – | – | 71.8 ± 0.4 | –
O [water] + C1COCCO1 | – | – | – | – | 71.8 ± 0.4
O [water] + OCCO | – | – | – | – | 71.8 ± 0.4
